{"source": "ChEMBL document CHEMBL1152129", "about": "“Quantitative structure-activity relationship and complex network approach to monoamine oxidase A and B inhibitors” (J Med Chem, 2008)", "key": {"[1]": {"biological_target": "T1, Amine oxidase [flavin-containing] B (Homo sapiens, UniProt P27338)", "T1 sequence (P27338 whole entry)": "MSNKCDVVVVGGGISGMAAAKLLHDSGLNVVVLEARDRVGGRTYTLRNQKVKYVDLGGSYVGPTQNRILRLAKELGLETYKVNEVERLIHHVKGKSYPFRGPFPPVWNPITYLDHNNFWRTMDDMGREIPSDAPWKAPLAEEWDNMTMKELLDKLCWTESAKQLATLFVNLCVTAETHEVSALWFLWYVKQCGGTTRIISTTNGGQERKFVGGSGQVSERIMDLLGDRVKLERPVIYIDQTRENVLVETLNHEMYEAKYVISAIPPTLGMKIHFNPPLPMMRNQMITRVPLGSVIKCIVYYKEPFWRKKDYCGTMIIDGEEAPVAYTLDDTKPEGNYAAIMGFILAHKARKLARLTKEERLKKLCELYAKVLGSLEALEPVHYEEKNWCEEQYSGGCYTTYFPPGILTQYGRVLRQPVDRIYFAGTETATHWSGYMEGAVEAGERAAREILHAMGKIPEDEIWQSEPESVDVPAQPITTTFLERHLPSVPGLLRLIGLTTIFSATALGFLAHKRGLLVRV", "test": "Inhibition of human recombinant MAOB at 1 mM by fluorimetric method", "settings": "1000 µM; call rule not given here"}, "Homo sapiens": {"species_on_record": "Homo sapiens", "test": "Selectivity ratio of IC50 for human recombinant MAOA to IC50 for human recombinant MAOB"}, "[2]": {"biological_target": "T2, Amine oxidase [flavin-containing] A (Homo sapiens, UniProt P21397)", "T2 sequence (P21397 whole entry)": "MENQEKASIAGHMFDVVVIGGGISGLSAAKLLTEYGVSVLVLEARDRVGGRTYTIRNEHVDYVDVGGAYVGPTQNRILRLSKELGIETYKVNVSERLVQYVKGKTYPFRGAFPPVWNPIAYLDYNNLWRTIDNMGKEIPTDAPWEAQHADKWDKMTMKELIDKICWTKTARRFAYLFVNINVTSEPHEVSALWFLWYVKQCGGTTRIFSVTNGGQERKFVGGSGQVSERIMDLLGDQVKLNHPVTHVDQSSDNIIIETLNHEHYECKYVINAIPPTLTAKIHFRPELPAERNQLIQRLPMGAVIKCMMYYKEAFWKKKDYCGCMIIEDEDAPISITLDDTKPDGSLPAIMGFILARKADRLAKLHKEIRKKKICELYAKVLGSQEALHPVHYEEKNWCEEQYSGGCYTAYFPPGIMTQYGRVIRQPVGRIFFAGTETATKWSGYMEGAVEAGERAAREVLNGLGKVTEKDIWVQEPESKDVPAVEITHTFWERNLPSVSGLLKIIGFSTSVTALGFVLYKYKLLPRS", "test": "Inhibition of human recombinant MAOA by fluorimetric method"}, "[3]": {"biological_target": "T1, Amine oxidase [flavin-containing] B", "test": "Inhibition of human recombinant MAOB at 100 uM by fluorimetric method"}, "[4]": {"biological_target": "T1, Amine oxidase [flavin-containing] B", "test": "Inhibition of human liver MAOB"}}}
{"compound": "COC(F)(F)C(Cl)Cl", "note": "[METHOXYFLURANE]", "values": [{"measurement": "Activity", "setting": "[1]", "value": "Not Active"}]}
{"compound": "O=CN(O)CC(=O)O", "note": "[HADACIDIN]", "values": [{"measurement": "Activity", "setting": "[1]", "value": "Not Active"}]}
{"compound": "O=c1ccc2cc3c4c(oc3cc2o1)CC4", "values": [{"measurement": "Ratio IC50", "setting": "Homo sapiens", "value": "< 0.58"}, {"measurement": "IC50", "setting": "[2]", "value": 57.9, "unit": "µM"}, {"measurement": "Activity", "setting": "[3]", "value": "Not Active"}]}
{"compound": "O=C1CCCCC1Oc1ccc2ccc(=O)oc2c1", "note": "(configuration not stated)", "values": [{"measurement": "Ratio IC50", "setting": "Homo sapiens", "value": "< 0.43"}, {"measurement": "IC50", "setting": "[2]", "value": 43, "unit": "µM"}, {"measurement": "Activity", "setting": "[3]", "value": "Not Active"}]}
{"compound": "C=C1[C@@H](C)[C@H]2[C@H](Cc3ccccc3)NC(=O)[C@]23OC(=O)/C=C/[C@H](O)CCC[C@@H](C)C/C=C/[C@H]3[C@@H]1O", "note": "[CYTOCHALASIN B]", "values": [{"measurement": "Activity", "setting": "[1]", "value": "Not Active"}]}
{"compound": "Cc1c(O)ccc2c3c(c(=O)oc12)CCCC3", "values": [{"measurement": "Ratio IC50", "setting": "Homo sapiens", "value": "< 0.6"}, {"measurement": "IC50", "setting": "[2]", "value": 60.1, "unit": "µM"}, {"measurement": "Activity", "setting": "[3]", "value": "Not Active"}]}
{"compound": "CC(=O)[C@@]1(O)CC[C@H]2[C@@H]3C[C@H](C)C4=CC(=O)CC[C@]4(C)[C@H]3CC[C@@]21C", "values": [{"measurement": "Activity", "setting": "[1]", "value": "Not Active"}]}
{"compound": "C1OC1CN1CCC(C2CCN(CC3CO3)CC2)CC1", "note": "(configuration not stated) [EPIPROPIDINE]", "values": [{"measurement": "Activity", "setting": "[1]", "value": "Not Active"}]}
{"compound": "CN(Cc1cnc2nc(N)nc(N)c2n1)c1ccc(C(=O)N[C@@H](CCC(=O)O)C(=O)O)cc1", "note": "[METHOTREXATE]", "values": [{"measurement": "Activity", "setting": "[1]", "value": "Not Active"}]}
{"compound": "O=c1oc2cc(O)ccc2c2c1CCC2", "values": [{"measurement": "Ratio IC50", "setting": "Homo sapiens", "value": "< 0.48"}, {"measurement": "IC50", "setting": "[2]", "value": 48.2, "unit": "µM"}, {"measurement": "Activity", "setting": "[3]", "value": "Not Active"}]}
{"compound": "N[C@@H](Cc1ccc(O)c(O)c1)C(=O)O", "note": "[LEVODOPA]", "values": [{"measurement": "Activity", "setting": "[1]", "value": "Not Active"}]}
{"compound": "CC(=O)Nc1c(I)c(C(=O)N[C@H]2C(O)O[C@H](CO)[C@@H](O)[C@@H]2O)c(I)c(N(C)C(C)=O)c1I", "note": "(some centres not stated) [METRIZAMIDE]", "values": [{"measurement": "Activity", "setting": "[4]", "value": "Not Active"}, {"measurement": "Activity", "setting": "[3]", "value": "Not Active"}]}
{"compound": "Cc1ncc([N+](=O)[O-])n1CCO", "note": "[METRONIDAZOLE]", "values": [{"measurement": "Activity", "setting": "[4]", "value": "Not Active"}, {"measurement": "Activity", "setting": "[3]", "value": "Not Active"}]}
{"compound": "CS(=O)(=O)OC[C@@H]1O[C@H]1[C@@H]1O[C@H]1COS(C)(=O)=O", "values": [{"measurement": "Activity", "setting": "[1]", "value": "Not Active"}]}
{"compound": "CCCOC1=C(N2CC2)C(=O)C(OCCC)=C(N2CC2)C1=O", "note": "[INPROQUONE]", "values": [{"measurement": "Activity", "setting": "[1]", "value": "Not Active"}]}
{"compound": "O=NN(CCCl)C(=O)NC1CCCCC1", "note": "[LOMUSTINE]", "values": [{"measurement": "Activity", "setting": "[4]", "value": "Not Active"}, {"measurement": "Activity", "setting": "[3]", "value": "Not Active"}]}
{"compound": "O=[N+]([O-])O[C@@H]1CO[C@H]2[C@@H]1OC[C@@H]2O", "note": "[ISOSORBIDE MONONITRATE]", "values": [{"measurement": "Activity", "setting": "[4]", "value": "Not Active"}, {"measurement": "Activity", "setting": "[3]", "value": "Not Active"}]}
{"compound": "O=C(Cc1ccc(N(CCCl)CCCl)cc1)NC[C@H](NC(=O)Cc1ccc(N(CCCl)CCCl)cc1)C(=O)O", "note": "[LONIN 4]", "values": [{"measurement": "Activity", "setting": "[4]", "value": "Not Active"}, {"measurement": "Activity", "setting": "[3]", "value": "Not Active"}]}
{"compound": "N=c1nc2n(cc1F)[C@@H]1O[C@H](CO)[C@@H](O)[C@@H]1O2", "note": "[FLUROCITABINE]", "values": [{"measurement": "Activity", "setting": "[1]", "value": "Not Active"}]}
{"compound": "CCCC(C)(COC(N)=O)COC(N)=O", "note": "[MEPROBAMATE]", "values": [{"measurement": "Activity", "setting": "[4]", "value": "Not Active"}, {"measurement": "Activity", "setting": "[3]", "value": "Not Active"}]}
{"compound": "CCN(CC)CC(=O)Nc1c(C)cccc1C", "note": "[LIDOCAINE]", "values": [{"measurement": "Activity", "setting": "[1]", "value": "Not Active"}]}
{"compound": "O=NN(CCCl)C(=O)NC[C@@H](O)[C@H](O)CN(N=O)C(=O)NCCCl", "values": [{"measurement": "Activity", "setting": "[1]", "value": "Not Active"}]}
{"compound": "O=[N+]([O-])c1ccc(/C=N/n2cnnc2)o1", "note": "[FURAZONAL]", "values": [{"measurement": "Activity", "setting": "[4]", "value": "Not Active"}, {"measurement": "Activity", "setting": "[3]", "value": "Not Active"}]}
{"compound": "COC(=O)[C@H](Cc1cnc[nH]1)NC(=O)Cc1ccc(N(CCCl)CCCl)cc1", "values": [{"measurement": "Activity", "setting": "[4]", "value": "Not Active"}, {"measurement": "Activity", "setting": "[3]", "value": "Not Active"}]}
{"compound": "NC(N)=N/N=C/c1ccc([N+](=O)[O-])o1", "note": "[FURAGUANIDINE]", "values": [{"measurement": "Activity", "setting": "[4]", "value": "Not Active"}, {"measurement": "Activity", "setting": "[3]", "value": "Not Active"}]}
{"compound": "COc1c(OCC(C)=O)ccc2cc(NC(C)=O)c(=O)oc12", "values": [{"measurement": "Ratio IC50", "setting": "Homo sapiens", "value": "< 0.53"}, {"measurement": "IC50", "setting": "[2]", "value": 5.31, "unit": "µM"}, {"measurement": "Activity", "setting": "[3]", "value": "Not Active"}]}
{"compound": "CC[C@H](c1ccc(OP(=O)(O)O)cc1)[C@@H](CC)c1ccc(OP(=O)(O)O)cc1", "note": "[HEXESTROL DIPHOSPHATE]", "values": [{"measurement": "Activity", "setting": "[4]", "value": "Not Active"}, {"measurement": "Activity", "setting": "[3]", "value": "Not Active"}]}
{"compound": "COc1c(O)ccc2c3c(c(=O)oc12)CCC3", "values": [{"measurement": "Ratio IC50", "setting": "Homo sapiens", "value": "< 0.63"}, {"measurement": "IC50", "setting": "[2]", "value": 63.5, "unit": "µM"}, {"measurement": "Activity", "setting": "[3]", "value": "Not Active"}]}
{"compound": "CCc1cc(C(N)=S)ccn1", "note": "[ETHIONAMIDE]", "values": [{"measurement": "Activity", "setting": "[4]", "value": "Not Active"}, {"measurement": "Activity", "setting": "[3]", "value": "Not Active"}]}
